Measurements reported in ChEMBL document CHEMBL3351611, “Diversity-oriented synthesis-facilitated medicinal chemistry: toward the development of novel antimalarial agents” (J Med Chem, 2014).
Values after ≈ are worked out from the molar mass of the structure shown.

Assays:
[1] = molecular target: hERG (KCNH2) (Homo sapiens, UniProt Q12809); test: Displacement of [3H]astemizole from human ERG expressed in HEK293 cell membranes at 10 uM incubated for 75 mins by scintillation counting method; conditions: HEK293 cell membranes that express hERG, probe [3H]astemizole
Chain of hERG (KCNH2) (Q12809 whole entry): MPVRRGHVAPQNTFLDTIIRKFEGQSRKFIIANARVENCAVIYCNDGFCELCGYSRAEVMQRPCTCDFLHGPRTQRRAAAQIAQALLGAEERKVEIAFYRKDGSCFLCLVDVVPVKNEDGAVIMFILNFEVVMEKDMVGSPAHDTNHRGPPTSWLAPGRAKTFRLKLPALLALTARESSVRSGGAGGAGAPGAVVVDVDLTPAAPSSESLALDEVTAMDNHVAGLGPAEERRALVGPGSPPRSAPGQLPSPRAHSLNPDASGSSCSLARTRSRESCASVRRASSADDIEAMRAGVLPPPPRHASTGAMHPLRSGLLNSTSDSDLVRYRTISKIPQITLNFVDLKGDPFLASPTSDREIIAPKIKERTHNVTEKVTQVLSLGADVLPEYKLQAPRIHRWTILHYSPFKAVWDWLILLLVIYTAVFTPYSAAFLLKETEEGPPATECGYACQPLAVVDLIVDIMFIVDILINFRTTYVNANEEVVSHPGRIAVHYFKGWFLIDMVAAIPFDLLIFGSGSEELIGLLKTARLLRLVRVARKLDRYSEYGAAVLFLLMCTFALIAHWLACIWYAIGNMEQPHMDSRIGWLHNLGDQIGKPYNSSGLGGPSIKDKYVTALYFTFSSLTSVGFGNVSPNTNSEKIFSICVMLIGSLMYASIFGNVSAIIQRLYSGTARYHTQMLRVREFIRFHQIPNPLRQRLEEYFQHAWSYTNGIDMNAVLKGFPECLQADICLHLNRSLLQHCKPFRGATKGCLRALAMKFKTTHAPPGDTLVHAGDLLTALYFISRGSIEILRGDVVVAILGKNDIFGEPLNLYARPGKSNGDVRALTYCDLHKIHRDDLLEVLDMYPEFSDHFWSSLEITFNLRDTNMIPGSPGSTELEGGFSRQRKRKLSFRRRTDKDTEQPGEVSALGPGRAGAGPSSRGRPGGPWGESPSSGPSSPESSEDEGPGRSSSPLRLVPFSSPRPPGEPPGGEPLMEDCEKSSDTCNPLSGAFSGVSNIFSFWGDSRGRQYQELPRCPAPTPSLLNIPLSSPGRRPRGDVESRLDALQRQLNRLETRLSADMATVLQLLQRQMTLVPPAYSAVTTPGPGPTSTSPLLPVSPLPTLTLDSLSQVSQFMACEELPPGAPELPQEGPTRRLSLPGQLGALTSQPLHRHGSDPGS

[2] = Lipophilicity, log D of the compound by HPLC method; assay type: physicochemical
[3] = system: Plasmodium falciparum; test: Antimalarial activity against Plasmodium falciparum Dd2 assessed as inhibition of parasite proliferation; assay type: functional
[4] = Stability in mouse microsomes assessed as compound remaining at 1 uM after 1 hr at 37 degC by UPLC-MS method; assay type: ADME, Microsome; conditions: read-out: Stability
[5] = Solubility in PBS buffet at pH 7.4 at 100 uM incubated for 18 hrs by UPLC-MS method; assay type: physicochemical; conditions: for solubility: buffer, pH 7.4, 18 h, 100 µM
[6] = system: Plasmodium berghei; test: Antimalarial activity against Plasmodium berghei ANKA infected in CD1 Swiss albino mouse assessed as reduction in parasitemia level at 100 mg/kg, ip dosed seven times every 12 hrs over 3 days relative to control; assay type: functional; conditions: route intraperitoneal
[7] = Plasma concentration in Plasmodium berghei ANKA infected CD1 Swiss albino mouse at 100 mg/kg, ip dosed seven times every 12 hrs over 3 days measured 30 mins after final dose on day 3; assay type: ADME, organism-based; set-up: dose 100 mg/kg, route intraperitoneal
[8] = Plasma concentration CD1 mouse at 20 mg/kg, ip dosed through cassette administration measured after 2 hrs by LC-MS/MS method; assay type: ADME, organism-based; set-up: dose 20 mg/kg, route intraperitoneal
[9] = system: Plasmodium berghei; test: Antimalarial activity against Plasmodium berghei ANKA infected in CD1 Swiss albino mouse assessed as reduction in parasitemia; assay type: functional

Row | SMILES | logD [2] | GI50 [3] [nM] | remaining at 1 h, 1 µM [4] [%] | solubility [5] [µM] | further results
1 | C[C@@H]1CN([C@@H](C)CN(C)C)C(=O)c2cc(NC(=O)Nc3ccccc3)ccc2O[C@@H](C)CCCCO[C@H]1CN(C)S(=O)(=O)c1ccc(F)cc1 | 4.1 | – | – | – | inhibition at 1.25 h, 10 µM [1]: 95%
2 | Cc1noc(C)c1NC(=O)Nc1ccc2c(c1)C(=O)N([C@@H](C)CO)C[C@@H](C)[C@H](CN(C)S(=O)(=O)c1ccc(F)cc1)OCCCC[C@H](C)O2 | 2.9 | 240 | < 5 | – | inhibition at 1.25 h, 10 µM [1]: 11%
3 | Cc1noc(C)c1NC(=O)Nc1ccc2c(c1)C(=O)N(C(C)C)C[C@@H](C)[C@H](CN(C)S(=O)(=O)c1ccc(F)cc1)OCCCC[C@H](C)O2 | 4 | 22 | < 5 | – | solubility at 18 h, 100 µM ([5]; PBS buffer, pH 7.4): < 5 µM; inhibition at 1.25 h, 10 µM [1]: 0%
4 | COc1ccc(COC[C@H](C)N2C[C@@H](C)[C@H](CN(C)S(=O)(=O)c3ccc(F)cc3)OCCCC[C@H](C)Oc3ncc(F)cc3C2=O)cc1 | – | 162 | – | < 5 | –
5 | C[C@@H]1CN([C@@H](C)CN(C)C)C(=O)c2cccnc2O[C@@H](C)CCCCO[C@H]1CN(C)S(=O)(=O)c1ccc(F)cc1 | – | 231 | < 5 | > 100 | –
6 | CCN(CC)C[C@H](C)N1C[C@@H](C)[C@H](CN(C)S(=O)(=O)c2ccc(F)cc2)OCCCC[C@H](C)Oc2ncccc2C1=O | – | 79 | < 5 | > 100 | –
7 | C[C@@H]1CN([C@@H](C)CN(C)Cc2cc(F)ccc2F)C(=O)c2cccnc2O[C@@H](C)CCCCO[C@H]1CN(C)S(=O)(=O)c1ccc(F)cc1 | – | 10 | – | < 5 | –
8 | COc1ccc(COC[C@H](C)N2C[C@@H](C)[C@H](CN(C)S(=O)(=O)c3ccc(F)cc3)OCCCC[C@H](C)Oc3ccsc3C2=O)cc1 | – | 481 | – | < 5 | –
9 | COc1ccc(COC[C@H](C)N2C[C@@H](C)[C@H](CN(C)S(=O)(=O)c3ccc(F)cc3)OCCCC[C@H](C)Oc3c(cnn3C)C2=O)cc1 | – | 375 | – | 15 (≈ 10.1 µg/mL) | –
10 | COc1ccc(COC[C@H](C)N2CC[C@H](CN(C)S(=O)(=O)c3ccc(F)cc3)OCCCC[C@H](C)Oc3ccc(NC(=O)Nc4c(C)noc4C)cc3C2=O)cc1 | – | 20 | – | < 5 | –
11 | Cc1noc(C)c1NC(=O)Nc1ccc2c(c1)C(=O)N([C@@H](C)CN(C)C)CC[C@H](CN(C)S(=O)(=O)c1ccc(F)cc1)OCCCC[C@H](C)O2 | – | 71 | 2 | 99 (≈ 71 µg/mL) | –
12 | COc1ccc(COC[C@H](C)N2C[C@@H](C)[C@H](CN(C)S(=O)(=O)c3ccc(F)cc3)OCCCCCOc3ccc(NC(=O)Nc4c(C)noc4C)cc3C2=O)cc1 | – | 6 | – | – | –
13 | Cc1noc(C)c1NC(=O)Nc1ccc2c(c1)C(=O)N([C@@H](C)CN(C)C)C[C@@H](C)[C@H](CN(C)S(=O)(=O)c1ccc(F)cc1)OCCCCCO2 | – | 111 | – | > 100 | –
14 | COc1ccc(COC[C@H](C)N2C[C@@H](C)[C@H](CN(C)S(=O)(=O)c3ccc(F)cc3)OCCCCCNc3ccc(NC(=O)Nc4c(C)noc4C)cc3C2=O)cc1 | – | 76 | – | < 5 | –
15 | COc1ccc(COC[C@H](C)N2C[C@@H](C)[C@H](CN(C)S(=O)(=O)c3ccc(F)cc3)OCCCCOc3ccc(NC(=O)Nc4c(C)noc4C)cc3C2=O)cc1 | – | 17 | 17 | < 5 | –
16 | CNC[C@H](C)N1C[C@@H](C)[C@H](CN(C)S(=O)(=O)c2ccc(F)cc2)OCCCCOc2ccc(NC(=O)Nc3c(C)noc3C)cc2C1=O | – | 624 | 65 | > 100 | –
17 | Cc1noc(C)c1NC(=O)Nc1ccc2c(c1)C(=O)N([C@@H](C)CN(C)C)C[C@@H](C)[C@H](CN(C)S(=O)(=O)c1ccc(F)cc1)OCCCCO2 | – | 91 | 15 | > 100 | –
18 | COc1ccc(COC[C@H](C)N2C[C@@H](C)[C@H](CN(C)S(=O)(=O)c3ccc(F)cc3)OCCCOc3ccc(NC(=O)Nc4c(C)noc4C)cc3C2=O)cc1 | – | 767 | – | < 5 | –
19 | COc1ccc(COC[C@H](C)N2C[C@@H](C)[C@H](CN(C)S(=O)(=O)c3ccc(F)cc3)OCCOc3ccc(NC(=O)Nc4c(C)noc4C)cc3C2=O)cc1 | – | 2970 | – | 6 (≈ 4.61 µg/mL) | –

Row | SMILES | logD [2] | GI50 [3] [nM] | remaining at 1 h, 1 µM [4] [%] | solubility [5] [µM] | further results
20 | COc1ccc(COC[C@H](C)N2C[C@@H](C)[C@H](CN(C)S(=O)(=O)c3ccc(F)cc3)Oc3ccc(NC(=O)Nc4c(C)noc4C)cc3C2=O)cc1 | – | > 5000 | – | – | –
21 | COc1ccc(COC[C@H](C)N2C[C@@H](C)[C@H](CN(C)S(=O)(=O)c3ccc(F)cc3)OCCCC[C@H](C)Oc3ccc(NC(=O)Nc4c(C)noc4C)cc3C2=O)cc1 | – | 0.88 | – | < 5 | –
22 | C[C@@H]1CN([C@@H](C)CN(C)C)C(=O)c2cc(NC(=O)Nc3ccc(F)cc3)ccc2O[C@@H](C)CCCCO[C@H]1CN(C)S(=O)(=O)c1ccc(F)cc1 | 3.5 | 1.4 | < 5 | < 5 | –
23 | C[C@@H]1CN([C@@H](C)CN(C)C)C(=O)c2cc(NC(=O)NC3COC3)ccc2O[C@@H](C)CCCCO[C@H]1CN(C)S(=O)(=O)c1ccc(F)cc1 | 1.1 | 32 | 8 | > 100 | –
24 | Cc1noc(C)c1NC(=O)Nc1ccc2c(c1)C(=O)N([C@@H](C)CN(C)C)C[C@@H](C)[C@H](CN(C)S(=O)(=O)c1ccc(F)cc1)OCCCC[C@H](C)O2 | 2.9 | 4.2 | 8 | > 100 | inhibition at 1.25 h, 10 µM [1]: 13%; fold change (FC) [6]: 2; concentration at 0.5 h [7]: 300 ng/mL; concentration at 2 h [8]: 768 ng/mL
25 | CNC[C@H](C)N1C[C@@H](C)[C@H](CN(C)S(=O)(=O)c2ccc(F)cc2)OCCCC[C@H](C)Oc2ccc(NC(=O)Nc3c(C)noc3C)cc2C1=O | 1.7 | 320 | 51 | > 100 | –
26 | CCN(CC)C[C@H](C)N1C[C@@H](C)[C@H](CN(C)S(=O)(=O)c2ccc(F)cc2)OCCCC[C@H](C)Oc2ccc(NC(=O)Nc3c(C)noc3C)cc2C1=O | 3.1 | 5 | 5 | 8 (≈ 6.07 µg/mL) | –
27 | Cc1noc(C)c1NC(=O)Nc1ccc2c(c1)C(=O)N([C@@H](C)C[N+](C)(C)[O-])C[C@@H](C)[C@H](CN(C)S(=O)(=O)c1ccc(F)cc1)OCCCC[C@H](C)O2 | 1.5 | 160 | 35 | > 100 | –
28 | Cc1noc(C)c1NC(=O)Nc1ccc2c(c1)C(=O)N([C@@H](C)CNCC(C)(C)C)C[C@@H](C)[C@H](CN(C)S(=O)(=O)c1ccc(F)cc1)OCCCC[C@H](C)O2 | 3.8 | 14 | 5 | 7 (≈ 5.41 µg/mL) | –
29 | Cc1noc(C)c1NC(=O)Nc1ccc2c(c1)C(=O)N([C@@H](C)CNCC(F)(F)F)C[C@@H](C)[C@H](CN(C)S(=O)(=O)c1ccc(F)cc1)OCCCC[C@H](C)O2 | 3.9 | 9 | < 5 | – | inhibition at 1.25 h, 10 µM [1]: 15%
30 | Cc1noc(C)c1NC(=O)Nc1ccc2c(c1)C(=O)N([C@@H](C)CN1CCOCC1)C[C@@H](C)[C@H](CN(C)S(=O)(=O)c1ccc(F)cc1)OCCCC[C@H](C)O2 | 3.5 | 105 | < 5 | 29 (≈ 22.4 µg/mL) | inhibition at 1.25 h, 10 µM [1]: 1%
31 | COc1ccc(COC[C@H](C)N2C[C@@H](C)[C@H](CN(C)S(=O)(=O)c3ccc(F)cc3)OCCCC[C@H](C)OCCC2=O)cc1 | – | 3410 | – | < 5 | –
32 | COc1ccc(COC[C@H](C)N2C[C@@H](C)[C@H](CN(C)S(=O)(=O)c3ccc(F)cc3)OCCCC[C@H](C)Oc3ccc(F)cc3C2=O)cc1 | – | 162 | – | < 5 | –
33 | COc1ccc(COC[C@H](C)N2C[C@@H](C)[C@H](CN(C)S(=O)(=O)c3ccc(F)cc3)OCCCC[C@H](C)Oc3cc(F)ccc3C2=O)cc1 | – | 38 | – | < 5 | –
34 | COc1ccc(COC[C@H](C)N2C[C@@H](C)[C@H](CN(C)S(=O)(=O)c3ccc(F)cc3)OCCCC[C@H](C)Oc3cc(C(F)(F)F)ccc3C2=O)cc1 | – | 48 | – | < 5 | –
35 | COc1ccc(COC[C@H](C)N2C[C@@H](C)[C@H](CN(C)S(=O)(=O)c3ccc(F)cc3)OCCCC[C@H](C)Oc3cccnc3C2=O)cc1 | – | 403 | – | < 5 | –
36 | COc1ccc(COC[C@H](C)N2C[C@@H](C)[C@H](CN(C)S(=O)(=O)c3ccc(F)cc3)OCCCC[C@H](C)Oc3ncccc3C2=O)cc1 | – | 59 | – | < 5 | –
37 | COc1ccc(COC[C@H](C)N2C[C@@H](C)[C@H](CN(C)S(=O)(=O)c3ccc(F)cc3)OCCCC[C@H](C)Oc3nccnc3C2=O)cc1 | – | 214 | – | < 5 | –
38 | C[C@H]1[C@H](OC(=O)CCC(=O)O)O[C@@H]2O[C@@]3(C)CC[C@H]4[C@H](C)CC[C@@H]1[C@@]24OO3 [ARTESUNATE] | – | – | – | – | inhibition (INH) [9]: 97%
